A word on the pIC50: it is the negative decadic logarithm of the IC50, by convention in mol/L. High values mean a small IC50, low ones a large IC50.

The values below come from paper PMC2766802 (Analytical biochemistry, 2009).

One data set concerns the target hERG channel (Homo sapiens, UniProt Q12809).
The test system of data set [1] is untransduced U-2 OS cells. The experiment in a line: thallium flux counter-screen in untransduced U-2 OS cells. Format: cell-based, human. The following applies: concentration response (Fig. 3A).
[2] abbreviates: IC50, LOPAC 1280 library qHTS, titration series, hERG-expressing U-2 OS cells.

pIC50: −log10 of the molar value. Counter-ions that a name gives are not always drawn. Like-named read-outs stand apart in the source and are kept apart here.

Sequence of hERG channel (Q12809 whole entry): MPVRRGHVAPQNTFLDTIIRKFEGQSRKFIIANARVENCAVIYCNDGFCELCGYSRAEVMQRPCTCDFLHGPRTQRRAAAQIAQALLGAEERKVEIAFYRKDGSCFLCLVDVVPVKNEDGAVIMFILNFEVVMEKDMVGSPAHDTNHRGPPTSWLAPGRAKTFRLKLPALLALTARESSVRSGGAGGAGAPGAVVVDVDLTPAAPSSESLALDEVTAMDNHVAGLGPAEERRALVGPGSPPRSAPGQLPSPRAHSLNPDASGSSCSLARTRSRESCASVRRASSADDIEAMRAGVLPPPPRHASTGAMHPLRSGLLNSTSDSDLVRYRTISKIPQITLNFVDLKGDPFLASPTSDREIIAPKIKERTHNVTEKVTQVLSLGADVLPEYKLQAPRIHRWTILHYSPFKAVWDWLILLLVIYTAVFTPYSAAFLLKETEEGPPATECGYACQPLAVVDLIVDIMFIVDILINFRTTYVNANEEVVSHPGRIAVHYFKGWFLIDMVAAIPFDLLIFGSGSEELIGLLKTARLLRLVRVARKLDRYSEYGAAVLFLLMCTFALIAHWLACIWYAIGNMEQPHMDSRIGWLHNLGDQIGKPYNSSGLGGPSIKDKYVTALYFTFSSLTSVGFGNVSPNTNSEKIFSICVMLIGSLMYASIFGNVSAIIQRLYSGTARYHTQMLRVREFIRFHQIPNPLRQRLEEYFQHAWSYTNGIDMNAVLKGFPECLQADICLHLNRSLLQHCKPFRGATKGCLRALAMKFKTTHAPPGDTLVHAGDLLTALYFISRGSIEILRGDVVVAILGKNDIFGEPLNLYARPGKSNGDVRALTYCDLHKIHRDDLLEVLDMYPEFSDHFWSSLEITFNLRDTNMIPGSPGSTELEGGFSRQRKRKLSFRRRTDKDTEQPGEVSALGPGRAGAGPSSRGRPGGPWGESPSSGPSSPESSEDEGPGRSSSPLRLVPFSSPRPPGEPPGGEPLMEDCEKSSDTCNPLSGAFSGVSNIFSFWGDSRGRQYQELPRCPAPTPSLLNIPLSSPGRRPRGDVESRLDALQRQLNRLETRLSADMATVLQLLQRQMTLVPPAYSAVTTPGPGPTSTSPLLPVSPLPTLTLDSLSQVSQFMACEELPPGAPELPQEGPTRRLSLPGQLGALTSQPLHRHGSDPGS

Turning to `CCNC(=O)N1CCN(CCCC(c2ccc(F)cc2)c2ccc(F)cc2)CC1` [Amperozide hydrochloride], the pIC50 at hERG channel (setting [2]) is 7.22. In the case of `CCCCN1[C@@H]2CC[C@H]1CC(OC(c1ccc(F)cc1)c1ccc(F)cc1)C2` (some centres unmarked) [JHW 007 hydrochloride], the pIC50 against hERG channel (LOPAC 1280 library qHTS, titration series, hERG-expressing U-2 OS cells) is 7.05. For the compound `Cc1nc2sccn2c(=O)c1CCN1CCC(=C(c2ccc(F)cc2)c2ccc(F)cc2)CC1` [Ritanserin], the pIC50 against hERG channel (setting [2]) was 7.15.

On to `CCOC(=O)C1=C[C@]2(CC)CCCN3CCc4c(n1c1ccccc41)[C@@H]32` [Vinpocetine], for which the pIC50 against hERG channel is 6.85. As to `O=C(CCCN1CCC(O)(c2ccc(Cl)cc2)CC1)c1ccc(F)cc1` [haloperidol], the “effect on untransduced cells” value in data set [1] was “no effect”.
